# Values of other authors in patent publication US8288342B2, “Methods for treating vasomotor symptoms in castrated prostatic cancer patients with low dose cyproterone acetate” (priority 2008, dated 2012).
# System: hot flashes
# Settings: 37 subjects with bothersome hot flashes; cited from earlier work
smiles,measurement,value
"CC(=O)O[C@]1(C(C)=O)CC[C@H]2[C@@H]3C=C(C)C4=CC(=O)CC[C@]4(C)[C@H]3CC[C@@]21C [MA, megestrol acetate]",Therapeutic efficacy: reduction in hot flashes,70%
